Data taken from PubChem BioAssay (NCI).
“And” between values parts separate entries of the source, which are not always exact repeats. Equal entries are not always repeated.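 Results reflect a 48-hour exposure of cells in 96-well plates to compound at five concentrations. At the GI50, growth is halved. TGI marks complete inhibition of growth.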

How the values were obtained:
Test in all cases: NCI-60 cell line screen, 48 h
[1] = system: HT29 colon
[2] = system: MCF7 breast
[3] = system: OVCAR-8 ovarian
[4] = system: NCI-H460 lung
[5] = system: OVCAR-4 ovarian
[6] = system: SK-MEL-2 melanoma
[7] = system: OVCAR-3 ovarian
[8] = system: SK-MEL-5 melanoma
[9] = system: CCRF-CEM leukemia
[10] = system: MALME-3M melanoma
[11] = system: NCI-H226 lung
[12] = system: EKVX NSCLC
[13] = system: IGROV1 ovarian
[14] = system: K-562 leukemia
[15] = system: MOLT-4 leukemia

SMILES	TGI [1]	TGI [2]	TGI [3]	TGI [4]	TGI [5]	TGI [6]	TGI [7]	TGI [8]	TGI [9]	TGI [10]	TGI [11]	TGI [12]	TGI [13]	TGI [14]	TGI [15]	GI50 [3]	GI50 [11]	GI50 [12]	GI50 [13]
COC(=N)c1ncn(Cc2ccccc2)c1N	> 100 µM	> 100 µM	> 100 µM	> 100 µM	> 100 µM	> 100 µM	> 100 µM	> 100 µM	> 100 µM	> 100 µM	> 100 µM	> 100 µM	> 100 µM	> 100 µM					
c1ccc(-c2sc(-c3ccccc3)c3c2C2CCC3C2)cc1	34.5 µM		> 100 µM	88.2 µM	> 100 µM	39.5 µM	> 100 µM	49.7 µM	> 100 µM	> 100 µM	83.3 µM	> 100 µM	> 100 µM	> 100 µM	> 100 µM				
C=CCN1C(=O)/C(=C/c2ccccc2)N=C1SC1OC(COC(C)=O)C(OC(C)=O)C(OC(C)=O)C1OC(C)=O (centres undefined)	> 100 µM	> 100 µM	95.5 µM	> 100 µM	> 100 µM	48.8 µM	45.8 µM		> 100 µM	62.4 µM		63.7 µM	91.1 µM	> 100 µM	> 100 µM				
COc1cc(CC(C)N[C@@H](C)c2ccccc2)cc(OC)c1 (some centres undefined)	13.1 µM and > 100 µM	20.1 µM and > 100 µM	25.7 µM and > 100 µM	12.1 µM and > 100 µM	22.4 µM and > 100 µM	> 100 µM	21.1 µM and > 100 µM		24 µM and > 100 µM		38.2 µM and > 100 µM	26.4 µM and > 100 µM	24.3 µM and > 100 µM		17.4 µM and > 100 µM	11.8 µM and > 100 µM	15.1 µM and > 100 µM	12.2 µM and > 100 µM	10.6 µM and > 100 µM
CC(=O)O[C@@H]1[C@@H](C)[C@]2(CC(c3ccoc3)OC2O)C2CCC3O[C@]3(C)[C@]2(C)[C@@H]1OC(C)=O (some centres undefined)	> 100 µM	> 100 µM	> 100 µM	> 100 µM	> 100 µM	> 100 µM	> 100 µM	64.3 µM	61.5 µM		87.9 µM	> 100 µM	> 100 µM		64.9 µM				
O=C(Nc1ccc(Cl)cc1Cl)c1cc2nc3ccccc3c(=O)n2c2ccccc12	> 10 µM	> 10 µM	> 10 µM	> 10 µM		> 10 µM	> 10 µM	> 10 µM	> 10 µM	> 10 µM		> 10 µM	> 10 µM	> 10 µM					
CC(=O)N1N=C(c2ccccc2Nc2ccccc2C2=NN(C(C)=O)C(c3ccccc3)O2)OC1c1ccccc1 (centres undefined)	> 100 µM	> 100 µM	> 100 µM	> 100 µM	> 100 µM	> 100 µM	> 100 µM	> 100 µM		> 100 µM	> 100 µM	> 100 µM	> 100 µM	> 100 µM	> 100 µM				
CCNC(=S)Nc1c(C#N)c2n(c1C(=O)OCC)CCCCC2	> 100 µM	> 100 µM	> 100 µM	> 100 µM	> 100 µM	> 100 µM		> 100 µM	> 100 µM		> 100 µM	> 100 µM	> 100 µM	> 100 µM	> 100 µM				
